Assay results from paper PMC11343458, “Extracellular proteolysis of tandemly duplicated pheromone propeptides affords additional complexity to bacterial quorum sensing” (PLOS Biology, 2024).
Where two headings read alike, the source gives them in different places. No end group written: not given here.

Tests used:
[1] = test system: Rap^3T (PsrfA-3xYFP competence reporter); test: Competence reporter assay (PsrfA-3xYFP) in strain overexpressing Rap^3T; format: cell-based, Bacillus subtilis; settings: strain 9834 hsRap(phi3T) Psrf-YFP, 1mM IPTG, 4hrs in MC, peptides added after 1 hr; for YFP, Mean: mean of 3 repeats
Source text: (§1) Bacillus strains AES9822 (SacA::PsrfA-3xYFP Cm), AES9824 (SacA::PspoIIG-3xYFP Cm), AES9834 (sacA::Psrf-3xYFP cm amyE::hsRap^3T spec), and AES9836 ([…] cm amyE::hsRap^3T spec) were constructed by natural transformation of the pAEC1003, pAEC1103, and pAEC2836 (see next section) plasmids into a PY79;xpf background Bacillus subtilis strain.
For competence experiments, the expression levels of the srf promoter reporter were determinate in a liquid culture generated from a single colony that was inoculated into MC competence media. The strains were grown at 37° with shaking at 220 RPM, with or without addition of 1 mM IPTG. […]

[2] = test system: Rap^3T (PspoIIG-3xYFP sporulation reporter); test: Sporulation assay (PspoIIG-3xYFP reporter) in strain overexpressing Rap^3T; format: cell-based, Bacillus subtilis; settings: strain 9836 hsRap(phi3T) PspoIIG-YFP, 1mM IPTG, 6 hrs in DSM, peptides added after 4.5hrs; for Mean %ON: mean of 3 repeats
Source text: as §1
For sporulation experiments, the expression levels of spoIIG promoter reporter were determinate in a liquid culture from an overnight starter in LB were diluted 1:100 into Schaeffer’s sporulation medium (DSM). The strains were grown at 37° with shaking at 220 RPM, with or without addition of 1 mM IPTG. After 4.5 h of growth, peptides were added at a concentration of 10 μm. Following an additional 1.5 h of growth, YFP fluorescence was measured using a Beckman Coulter cytoflex flow cytometer.

Rap^105 = test: Thermal shift assay of Rap^105 with synthetic peptides; format: binding, phage phi105; settings: 100 μm peptide, without supernatant incubation
Method: (§2) The thermal shift assay was conducted in a CFX Opus Real-Time PCR system (Biorad). Samples of 20 μl containing 20× Sypro Orange (Sigma-Aldrich) and 50 μm of protein in a 20 mM Tris (pH 8) and 250 mM NaCl buffer or filtered supernatant in peptide maturation assays (see below) were loaded in 96-well PCR plates. In the cases where peptide interaction was analyzed, synthetic peptides at a final concentration of 100 μm were added to the assays. Samples were heated from 20 to 85°C in steps of 1 degree. Fluorescent intensity was plotted versus temperature and integrated with either CFX Opus Real-Time PCR automate model or GraphPad Prism software using a Boltzmann model to calculate melting temperatures.

[3] = test system: extracellular proteases in supernatants of B. subtilis 168, WB800 and individual protease mutants; test: Peptide maturation assay with B. subtilis supernatants, read by Rap^105 thermal shift; format: biochemical, Bacillus subtilis; settings: 100 μm peptide, 1 h room temperature; 8 single protease mutants
Method: Overnight cultures of either B. subtilis strains 168, WB800, Δmpr, Δbpr, ΔaprE, Δepr, ΔwprA, Δvpr, ΔnprB, ΔnprE in GM1 media were diluted 1:20 into GM1 media and incubated at 37°C at 250 rpm. After 2 h, the OD600 were measured and adjusted to 0.5 with GM1 media, and 1 ml of bacterial cultures were centrifuged at 8,000 g for 2 min at room temperature and the supernatants were filtered using 0,2 μm nitrocellulose filters; 1 μl of 10 mM synthetic version of the mature pheromones (RRGHTA, RRGHTAS, SRGHTS, RGHTS, ERPVGT, Imat1^3T, Imat2^3T, Imat1^105, Imat2^105, and Imat3^105) were added to 99 μl of supernatant obtaining a final concentration of 100 μm and incubated for 1 h at room temperature. After incubation, reaction was stopped by incubation at 95°C for 5 min and sample was kept and used in Thermal Shift Assays (see before). In the kinetic assays, samples were inactivated at different times by incubation at 95°C for 5 min. Experiments were validated by experimental triplicates of 3 biological replicates.
as §2

Rap^3T = test: Microscale thermophoresis (MST) of peptide binding to Rap^3T; design: species or system Bacillus phage phi3T
Method: Rap^3T was fluorescently labeled with NT-647 amine reactive dye from the Monolith NT Protein Labeling kit RED-NHS (NanoTemper Technologies) according to the manufacturer’s instructions. Briefly, 100 μm solution of the protein was mixed with 3× dye solution, incubated 30 min in dark, and then purified by gravity in a 5 ml size exclusion column equilibrated with dialysis buffer (20 mM Tris-HCl (pH 8), 250 mM NaCl) supplemented with 0.1% pluronic and 5% glycerol to remove free dye. Rap^105 was fluorescently labeled using His-Tag Labeling Kit RED-tris-NTA 2nd Generation. Briefly, 500 nM of protein was mixed with 5 μm dye in PBS supplemented with 0,02% of tween incubated in dark at room temperature for 30 min and centrifuged at 10,000 g for 10 min at 4°C, transferred to a fresh tube, and used in the assays immediately. Labeled proteins were used at a final optimized concentration of 20 nM in the case of Rap^3T and 250 nM in the case of Rap^105. For the measurements of EC50, a 16-point 2-fold serial dilution (ranged from 2 to 3 × 10^−5 μm) of the peptides were prepared in presence of the corresponding labeled Rap protein. After 15-min incubation at room temperature, samples were filled into standard Capillaries (K005, NanoTemper Technologies) and MST measurements were performed on a Monolith NT.115 (NanoTemper Technologies) in RED channel using 60% to 75% of LED excitation power and medium or high MST power for Rap^3T or Rap^105, respectively. […] Data analyses were performed with M.O. Affinity Analysis software (NanoTermper Technologies) applying cooperative (Hill coefficient) and non-cooperative (Kd model) models, with the first one yielding better fitting values.

[4] = test system: extracellular proteases in supernatants of B. subtilis 168, WB800 and individual protease mutants; test: Peptide maturation assay with B. subtilis supernatants, read by Rap^3T thermal shift; format: biochemical, Bacillus subtilis; settings: 100 μm peptide
Method: Overnight cultures of either B. subtilis strains 168, WB800, Δmpr, Δbpr, ΔaprE, Δepr, ΔwprA, Δvpr, ΔnprB, ΔnprE in GM1 media were diluted 1:20 into GM1 media and incubated at 37°C at 250 rpm. […] After incubation, reaction was stopped by incubation at 95°C for 5 min and sample was kept and used in Thermal Shift Assays (see before). In the kinetic assays, samples were inactivated at different times by incubation at 95°C for 5 min. Experiments were validated by experimental triplicates of 3 biological replicates.
as §2

[5] = test system: WprA and Bpr proteases (B. subtilis supernatants); test: Kinetic (time course) maturation assay of Imat1^3T in 168, WprA and Bpr KO supernatants; format: biochemical, Bacillus subtilis; settings: samples inactivated at different times, Rap^3T thermal shift
Source text: Fig 2 Propeptide maturation of Phr^3T and Phr^105 propeptides. Thermal shift assay experiments for maturation effect of supernatants from B. subtilis 168 and WB800 strains in immature version of the pheromones codified in Phr^3T (a) and Phr^105 (e), mean values of triplicates are plotted, 3 standard deviations from negative control maturation (WB800 supernatant) are highlighted in red. Error bars mark from the minimum to maximum values observed in the triplicates. Thermal shift assays with supernatants from B. subtilis 168, WB800, and individual protease mutant strains in maturation of peptides Imat2^3T(b), Imat1^105 (f), Imat2^105 (g) and Imat3^105 (h), mean values of triplicates are plotted, 3 standard deviations from negative control maturation (WB800 supernatant) are highlighted in red. Error bars mark from the minimum to maximum values observed in the triplicates. (c) Thermal shift slopes of the effect of individual mutations of 8 protease genes on Imat1^3T peptide maturation. (d) Kinetic assays comparing Imat1^3T peptide maturation in 168 supernatant and supernatants of WprA and Bpr protease KO mutants, relative maturation was calculated as fluorescence of the peak corresponding with the mature pheromone divided by the fluorescence of the peak corresponding with the non-maturated pheromone. […]

[6] = target: Rap^3T (Bacillus phage phi3T); test: thermal shift assay; Sypro Orange, 50 μm protein, 100 μm synthetic peptide, 20 mM Tris (pH 8), 250 mM NaCl (or filtered supernatant in the maturation assays), heated from 20 to 85°C
[7] = target: Rap^3T (Bacillus phage phi3T); test: MST; Rap^3T labelled with NT-647 (RED-NHS) at 20 nM; peptides in a 16-point 2-fold dilution from 2 to 3 x 10^-5 μm; 20 mM Tris-HCl (pH 8), 250 mM NaCl, 0.1% pluronic, 5% glycerol; 15 min at room temperature; Hill model

Question: How did the “YFP, Mean” value [1] turn out when RRGHTASIGFTDGHSYDIA was run?
Answer: Its value is 8810.67.

Question: And the “YFP, repeat I” value [1]?
Answer: Its value is 5838.

Question: And the “YFP, repeat II” value [1]?
Answer: Its value is 10641.

Question: What about the “YFP, repeat III” value [1] of the same molecule?
Answer: The value was 9953.

Question: What about the “Mean %ON” value [2] of the same molecule?
Answer: The value was 42.9%.

Question: And the “%ON (YFP), repeat I” value [2]?
Answer: The value was 59.6%.

Question: What about the “YFP, repeat I” value [2] of the same molecule?
Answer: Its value is 5294.

Question: And the “% ON (YFP), repeat II” value [2]?
Answer: Its value is 39.8%.

Question: What about the “YFP, repeat II” value [2] of the same molecule?
Answer: The value was 2641.

Question: And the “% ON (YFP), repeat III” value [2]?
Answer: Its value is 29.3%.

Question: What about the “YFP, repeat III” value [2] of the same molecule?
Answer: Its value is 2055.

Question: For “ERPVGTLKLA [Imat1^105, immature synthetic peptide […]]”, which “stabilization of Rap^105 in thermal shift assay” value (Rap^105) is on record?
Answer: The value was “minimal stabilization”.

Question: And the “maturation by supernatants of individual protease mutants of B. subtilis 168 (Rap^105 thermal shift)” value (“maturation … (Rap^105 thermal shift)” for short) [3]?
Answer: Its value is “only for ΔwprA mutants”.

Question: With “SSDVKITERPVGT [Imat0^105, immature synthetic peptide […]]” as the molecule, how does the “stabilization of Rap^105 in thermal shift assay” value (Rap^105) read?
Answer: The value was “destabilization”.

Question: And the “maturation … (Rap^105 thermal shift)” value [3]?
Answer: Its value is “reduced or null maturation activity in ΔnprE, Δbpr, and ΔwprA mutants”.

Question: What does the source list for SIGFTDGHSYDIASRGHTS?
Answer: YFP, Mean [1]: 8018.67; YFP, repeat I [1]: 5205; YFP, repeat II [1]: 10226; YFP, repeat III [1]: 8625; Mean %ON [2]: 37.1%; %ON (YFP), repeat I [2]: 51.1%; YFP, repeat I [2]: 4889; % ON (YFP), repeat II [2]: 30.7%; YFP, repeat II [2]: 2305; % ON (YFP), repeat III [2]: 29.5%; YFP, repeat III [2]: 2121

Question: How did the EC50 (Rap^3T; MO.Affinity export, one merged set, target 2e-8, On Time evaluation, hot region 4-5, excitation power 10, confidence limits 0 and #NUM! (no real fit), read-out: EC50 (Hill fit), merged set) turn out when SIGFTDGHSYDIASRGHTS [Long2] was run?
Answer: Its EC50 is 19800 nM.

Question: Which “stabilization of Rap^105 in thermal shift assay” value (Rap^105) does the source give for “LKLAERPVGT [Imat2^105, immature synthetic peptide […]]” here?
Answer: The value was “destabilization”.

Question: What about the “maturation … (Rap^105 thermal shift)” value [3] of the same molecule?
Answer: Its value is “maturated for all the supernatants”.

Question: For RRGHTASIGFTDGHSYDIA [Imat1^3T], which “binding to Rap^3T (MST), in words” value (Rap^3T; MST) is on record?
Answer: The value was “weak affinity”.

Question: What about the “maturation by B. subtilis 168 supernatant (Rap^3T thermal shift)” value ([4]; 1 h room temperature in filtered supernatant (GM1, OD600 0.5), stopped 95°C 5 min) of the same molecule?
Answer: The value was “effectively processed”.

Question: And the “maturation by supernatants of individual protease mutants of B. subtilis 168 (Rap^3T thermal shift)” value ([4]; 1 h room temperature, 8 single protease mutants)?
Answer: Its value is “the supernatants from the ΔwprA and Δbpr mutants showed 2 slopes”.

Question: What about the “maturation by B. subtilis WB800 (protease-deficient) supernatant (Rap^3T thermal shift)” value ([4]; 1 h room temperature, strain mutant in nprE, nprB, aprE, epr, bpr, mpr, vpr, wrpA) of the same molecule?
Answer: The value was “no increase in Rap^3T stabilization was observed”.

Question: What about the “time course maturation with Δbpr supernatant” value [5] of the same molecule?
Answer: Its value is “fully mature the peptide at longer incubation times”.

Question: And the “time course maturation with ΔwprA supernatant” value [5]?
Answer: Its value is “minimal maturation levels even at these times”.

Question: For RRGHTASIGFTDGHSYDIA [Long1], which EC50 (Rap^3T; MST, Hill model, target 2e-8, MST-Power Medium, Nano - RED, 25.0°C, replicate 1 (first merge-set, c1), read-out: EC50 (Hill fit)) is on record?
Answer: The EC50 was 133 nM.

Question: What about the EC50 (Rap^3T; MST, Hill model, target 2e-8, MST-Power Medium, Nano - RED, 25.0°C, replicate 2 (second merge-set, c4), read-out: EC50 (Hill fit)) of the same molecule?
Answer: The EC50 was 134 nM.

Question: And the EC50 (Rap^3T; MST, Hill model, target 2e-8, MST-Power Medium, Nano - RED, 25.0°C, replicate 3 (third merge-set, c7), read-out: EC50 (Hill fit))?
Answer: The EC50 was 186 nM.

B1: RRGHTAS (peptide)
peptide: RRGHTAS
Question: With B1 as the molecule, how does the stabilization of the denaturation temperature [6] read?
Answer: The stabilization of the denaturation temperature was greater than 20 °C.

Question: And the EC50 [7]?
Answer: The EC50 was 6.7 nM.

B2: RGHTS (peptide)
peptide: RGHTS
Question: Which stabilization of the denaturation temperature [6] does the source give for B2 here?
Answer: The stabilization of the denaturation temperature was greater than 20 °C.

Question: What about the EC50 [7] of the same molecule?
Answer: Its EC50 is 69.8 nM.

B3: SRGHTS (peptide)
peptide: SRGHTS
Question: With B3 as the molecule, how does the stabilization of the denaturation temperature [6] read?
Answer: Its stabilization of the denaturation temperature is greater than 20 °C.

Question: What about the EC50 [7] of the same molecule?
Answer: Its EC50 is 20.8 nM.

B4: RRGHTA (peptide)
peptide: RRGHTA
Question: What does the source list for B4?
Answer: dTm [6]: 75 °C; stabilization of the denaturation temperature [6]: > 20 °C; EC50 [7]: 5.28 nM
